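Tested at 5 concentrations; 48 h exposure; 96-well plates; endpoints linearly interpolated, else capped at highest concentration. GI50: concentration for 50% inhibition of growth.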 The source made the active and inactive calls. No stated cut-off is given here; in the data, active = GI50 up to about 1.1 µM and inactive = higher.
Tests used:
Assay in all cases: NCI anticancer screen, dose series, 48 h
786-0 = system: 786-0
A549 = system: A549
UACC-257 = system: UACC-257
M14 = system: M14
HL-60 = system: HL-60
NCI-H226 = system: NCI-H226
RXF 393 = system: RXF 393
NCI-H460 = system: NCI-H460
UACC-62 = system: UACC-62
SNB-78 = system: SNB-78
SK-MEL-2 = system: SK-MEL-2
SF-295 = system: SF-295
SK-MEL-28 = system: SK-MEL-28
HOP-18 = system: HOP-18
CCRF-CEM = system: CCRF-CEM
OVCAR-4 = system: OVCAR-4
UO-31 = system: UO-31
KM12 = system: KM12
IGROV-1 = system: IGROV-1
HOP-92 = system: HOP-92
LXFL 529 = system: LXFL 529
KM-20L2 = system: KM-20L2
SW-620 = system: SW-620
HT-29 = system: HT-29
EKVX = system: EKVX
K562 = system: K562
SF-539 = system: SF-539
SF-268 = system: SF-268
NCI-H522 = system: NCI-H522
RPMI-8226 = system: RPMI-8226
U-251 = system: U-251
SN12C = system: SN12C
HCC 2998 = system: HCC 2998
SK-MEL-5 = system: SK-MEL-5
SK-OV-3 = system: SK-OV-3
HCT-116 = system: HCT-116
NCI-H23 = system: NCI-H23
DLD-1 = system: DLD-1
OVCAR-3 = system: OVCAR-3
SNB-19 = system: SNB-19
A498 = system: A498
HOP-62 = system: HOP-62
CAKI-1 = system: CAKI-1
Malme-3M = system: Malme-3M
HCT-15 = system: HCT-15
DMS-273 = system: DMS-273
LOX IMVI = system: LOX IMVI
SNB-75 = system: SNB-75
TK-10 = system: TK-10
COLO 205 = system: COLO 205
MOLT-4 = system: MOLT-4
M19-MEL = system: M19-MEL
OVCAR-5 = system: OVCAR-5
ACHN = system: ACHN
OVCAR-8 = system: OVCAR-8
DMS-114 = system: DMS-114
XF498 = system: XF498
SR = system: SR

## CCOc1ccc2[nH]c3c(C)c4cc[n+](C)cc4c(C)c3c2c1
786-0
  GI50: 0.149 µM (active)
A549
  GI50: 1.18 µM (inactive)
UACC-257
  GI50: 2.97 µM (inactive)
M14
  GI50: 5.81 µM (inactive)
HL-60
  GI50: 4.67 µM (inactive)
NCI-H226
  GI50: 0.264 µM (active)
RXF 393
  GI50: 6.41 µM (inactive)
NCI-H460
  GI50: 1.94 µM (inactive)
UACC-62
  GI50: 1.84 µM (inactive)
SNB-78
  GI50: 1.09 µM (active)
SK-MEL-2
  GI50: 1.51 µM (inactive)
SF-295
  GI50: 0.125 µM (active)
SK-MEL-28
  GI50: 2.24 µM (inactive)
HOP-18
  GI50: 2.62 µM (inactive)
CCRF-CEM
  GI50: 1.98 µM (inactive)
OVCAR-4
  GI50: 2.54 µM (inactive)
UO-31
  GI50: 16.6 µM (inactive)
KM12
  GI50: 1.57 µM (inactive)
IGROV-1
  GI50: 2.18 µM (inactive)
HOP-92
  GI50: 1.98 µM (inactive)
LXFL 529
  GI50: 0.22 µM (active)
KM-20L2
  GI50: 3.35 µM (inactive)
SW-620
  GI50: 1.28 µM (inactive)
HT-29
  GI50: 3.25 µM (inactive)
EKVX
  GI50: 2.57 µM (inactive)
K562
  GI50: 1.58 µM (inactive)
SF-539
  GI50: 0.363 µM (active)
SF-268
  GI50: 0.184 µM (active)
NCI-H522
  GI50: 0.838 µM (active)
RPMI-8226
  GI50: 11.3 µM (inactive)
U-251
  GI50: 0.115 µM (active)
SN12C
  GI50: 0.14 µM (active)
HCC 2998
  GI50: 3 µM (inactive)
SK-MEL-5
  GI50: 1.36 µM (inactive)
SK-OV-3
  GI50: 2.88 µM (inactive)
HCT-116
  GI50: 1.82 µM (inactive)
NCI-H23
  GI50: 0.929 µM (active)
DLD-1
  GI50: 0.9 µM (active)
OVCAR-3
  GI50: 2.52 µM (inactive)

## COC(=O)c1c(-c2cc(OC)c(OC)c(OC)c2)oc2ccccc2c1=O
786-0
  GI50: > 100 µM (inactive)
A549
  GI50: 83.8 µM (inactive)
UACC-257
  GI50: > 100 µM (inactive)
M14
  GI50: > 100 µM (inactive)
SNB-19
  GI50: > 100 µM (inactive)
A498
  GI50: > 100 µM (inactive)
HL-60
  GI50: 36.7 µM (inactive)
NCI-H226
  GI50: > 100 µM (inactive)
RXF 393
  GI50: 53.6 µM (inactive)
NCI-H460
  GI50: 76.7 µM (inactive)
UACC-62
  GI50: 68.4 µM (inactive)
SNB-78
  GI50: > 100 µM (inactive)
SK-MEL-2
  GI50: > 100 µM (inactive)
HOP-62
  GI50: > 100 µM (inactive)
SF-295
  GI50: > 100 µM (inactive)
CAKI-1
  GI50: 75.3 µM (inactive)
HOP-18
  GI50: > 100 µM (inactive)
CCRF-CEM
  GI50: 36.7 µM (inactive)
OVCAR-4
  GI50: 68.4 µM (inactive)
UO-31
  GI50: 66.4 µM (inactive)
KM12
  GI50: > 100 µM (inactive)
IGROV-1
  GI50: > 100 µM (inactive)
HOP-92
  GI50: 96.6 µM (inactive)
Malme-3M
  GI50: > 100 µM (inactive)
LXFL 529
  GI50: 63.4 µM (inactive)
HCT-15
  GI50: 15.4 µM
DMS-273
  GI50: 84.9 µM (inactive)
LOX IMVI
  GI50: 37.4 µM (inactive)
KM-20L2
  GI50: > 100 µM (inactive)
SNB-75
  GI50: 58.7 µM (inactive)
SW-620
  GI50: > 100 µM (inactive)
TK-10
  GI50: 42.6 µM (inactive)
HT-29
  GI50: > 100 µM (inactive)
COLO 205
  GI50: 97.7 µM (inactive)
EKVX
  GI50: > 100 µM (inactive)
K562
  GI50: 42.8 µM (inactive)
SF-539
  GI50: > 100 µM (inactive)
MOLT-4
  GI50: 70.1 µM (inactive)
NCI-H522
  GI50: 94 µM (inactive)
RPMI-8226
  GI50: 36.2 µM (inactive)
M19-MEL
  GI50: > 100 µM (inactive)
U-251
  GI50: 87.3 µM (inactive)
SN12C
  GI50: > 100 µM (inactive)
HCC 2998
  GI50: > 100 µM (inactive)
SK-MEL-5
  GI50: 59.7 µM (inactive)
SK-OV-3
  GI50: > 100 µM (inactive)
HCT-116
  GI50: 48.3 µM (inactive)
NCI-H23
  GI50: > 100 µM (inactive)
DLD-1
  GI50: 52 µM (inactive)
OVCAR-5
  GI50: > 100 µM (inactive)
ACHN
  GI50: > 100 µM (inactive)
OVCAR-8
  GI50: > 100 µM (inactive)
OVCAR-3
  GI50: 75.9 µM (inactive)

## Cc1ccc(S(=O)(=O)N/N=C/CN2C(=O)c3ccccc3C2=O)cc1
786-0
  GI50: > 100 µM (inactive)
A549
  GI50: > 100 µM (inactive)
DMS-114
  GI50: > 100 µM (inactive)
UACC-257
  GI50: > 100 µM (inactive)
M14
  GI50: > 100 µM (inactive)
SNB-19
  GI50: > 100 µM (inactive)
A498
  GI50: > 100 µM (inactive)
HL-60
  GI50: > 100 µM (inactive)
NCI-H226
  GI50: 82.2 µM (inactive)
NCI-H460
  GI50: > 100 µM (inactive)
UACC-62
  GI50: 89.5 µM (inactive)
SK-MEL-2
  GI50: > 100 µM (inactive)
HOP-62
  GI50: > 100 µM (inactive)
SF-295
  GI50: > 100 µM (inactive)
CAKI-1
  GI50: > 100 µM (inactive)
CCRF-CEM
  GI50: > 100 µM (inactive)
OVCAR-4
  GI50: > 100 µM (inactive)
UO-31
  GI50: > 100 µM (inactive)
IGROV-1
  GI50: > 100 µM (inactive)
Malme-3M
  GI50: > 100 µM (inactive)
LXFL 529
  GI50: > 100 µM (inactive)
HCT-15
  GI50: > 100 µM
DMS-273
  GI50: > 100 µM (inactive)
LOX IMVI
  GI50: > 100 µM (inactive)
KM-20L2
  GI50: > 100 µM (inactive)
SNB-75
  GI50: > 100 µM (inactive)
SW-620
  GI50: > 100 µM (inactive)
TK-10
  GI50: > 100 µM (inactive)
HT-29
  GI50: > 100 µM (inactive)
COLO 205
  GI50: > 100 µM (inactive)
EKVX
  GI50: > 100 µM (inactive)
K562
  GI50: > 100 µM (inactive)
SF-539
  GI50: > 100 µM (inactive)
MOLT-4
  GI50: > 100 µM (inactive)
NCI-H522
  GI50: > 100 µM (inactive)
RPMI-8226
  GI50: > 100 µM (inactive)
M19-MEL
  GI50: > 100 µM (inactive)
U-251
  GI50: > 100 µM (inactive)
SN12C
  GI50: > 100 µM (inactive)
HCC 2998
  GI50: > 100 µM (inactive)
SK-MEL-5
  GI50: > 100 µM (inactive)
HCT-116
  GI50: > 100 µM (inactive)
XF498
  GI50: > 100 µM (inactive)
NCI-H23
  GI50: > 100 µM (inactive)
DLD-1
  GI50: > 100 µM (inactive)
ACHN
  GI50: > 100 µM (inactive)
OVCAR-8
  GI50: > 100 µM (inactive)
SR
  GI50: > 100 µM (inactive)
